Measurements from PMC7452891, “Cytokinin fluoroprobe reveals multiple sites of cytokinin perception at plasma membrane and endoplasmic reticulum” (Nature Communications, 2020).

Tests used:
[1] = molecular target: T1, AtCKX2 (CYTOKININ OXIDASE/DEHYDROGENASE) (Arabidopsis thaliana, UniProt Q9FUJ3); assay: in vitro enzymatic reaction with AtCKX2 (kcat, Vmax/Km); assay type: biochemical
T1 construct: gene CKX2
T1 sequence (Q9FUJ3 23-501): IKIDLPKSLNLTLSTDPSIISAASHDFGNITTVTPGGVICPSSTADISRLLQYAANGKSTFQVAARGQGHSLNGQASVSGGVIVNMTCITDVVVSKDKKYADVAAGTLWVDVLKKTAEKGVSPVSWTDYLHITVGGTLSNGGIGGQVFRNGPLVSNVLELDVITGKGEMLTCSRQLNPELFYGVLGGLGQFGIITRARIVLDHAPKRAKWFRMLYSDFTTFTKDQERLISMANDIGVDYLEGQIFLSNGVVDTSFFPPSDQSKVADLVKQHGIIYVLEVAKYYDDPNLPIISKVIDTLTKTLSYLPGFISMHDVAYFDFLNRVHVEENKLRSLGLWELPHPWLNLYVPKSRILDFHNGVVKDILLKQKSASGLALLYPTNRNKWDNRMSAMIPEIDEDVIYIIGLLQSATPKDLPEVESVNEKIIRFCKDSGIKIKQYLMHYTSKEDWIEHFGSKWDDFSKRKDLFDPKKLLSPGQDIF

AHK3 [2] = molecular target: T2, AHK3 (Arabidopsis thaliana, UniProt Q9C5U1); assay: competitive radioligand binding assay ([[…]-3H]tZ, [[…]-3H]iP) with E. coli cells expressing the receptor; assay type: cell-based
T2 construct: expressed in E. coli KMI001 (pSTV28-AHK3)
T2 sequence (Q9C5U1 1-1036): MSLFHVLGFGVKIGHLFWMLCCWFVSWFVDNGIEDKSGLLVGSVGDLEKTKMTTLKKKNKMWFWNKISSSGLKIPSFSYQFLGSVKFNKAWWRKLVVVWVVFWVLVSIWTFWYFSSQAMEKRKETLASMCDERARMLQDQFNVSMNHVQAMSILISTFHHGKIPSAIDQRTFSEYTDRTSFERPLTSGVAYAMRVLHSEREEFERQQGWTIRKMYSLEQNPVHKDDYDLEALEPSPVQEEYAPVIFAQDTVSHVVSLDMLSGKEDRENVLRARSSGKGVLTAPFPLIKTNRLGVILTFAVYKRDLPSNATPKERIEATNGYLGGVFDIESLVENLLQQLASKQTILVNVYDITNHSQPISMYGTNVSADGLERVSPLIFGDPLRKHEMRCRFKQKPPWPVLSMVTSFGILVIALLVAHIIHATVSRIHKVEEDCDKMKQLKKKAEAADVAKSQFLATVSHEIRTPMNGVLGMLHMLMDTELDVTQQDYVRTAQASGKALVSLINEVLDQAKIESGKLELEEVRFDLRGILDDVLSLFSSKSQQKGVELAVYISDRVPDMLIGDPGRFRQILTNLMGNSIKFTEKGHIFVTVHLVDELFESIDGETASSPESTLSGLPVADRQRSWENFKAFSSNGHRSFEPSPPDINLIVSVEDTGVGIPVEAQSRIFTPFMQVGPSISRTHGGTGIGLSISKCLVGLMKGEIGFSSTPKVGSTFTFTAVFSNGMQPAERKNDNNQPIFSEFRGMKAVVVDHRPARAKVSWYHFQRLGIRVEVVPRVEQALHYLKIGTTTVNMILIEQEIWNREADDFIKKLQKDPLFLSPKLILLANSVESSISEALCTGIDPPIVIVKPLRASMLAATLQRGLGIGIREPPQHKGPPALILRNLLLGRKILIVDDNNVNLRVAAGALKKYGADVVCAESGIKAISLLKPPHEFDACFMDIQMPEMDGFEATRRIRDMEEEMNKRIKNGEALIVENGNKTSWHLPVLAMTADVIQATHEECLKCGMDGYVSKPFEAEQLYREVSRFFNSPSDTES

[3] = molecular target: T3, CRE1/AHK4 (ARABIDOPSIS HISTIDINE KINASE 4) (Arabidopsis thaliana, UniProt Q9C5U0); assay: as above; assay type: cell-based
T3 construct: expressed in E. coli KMI001 (pIN-III-AHK4)
T3 sequence (Q9C5U0 whole entry): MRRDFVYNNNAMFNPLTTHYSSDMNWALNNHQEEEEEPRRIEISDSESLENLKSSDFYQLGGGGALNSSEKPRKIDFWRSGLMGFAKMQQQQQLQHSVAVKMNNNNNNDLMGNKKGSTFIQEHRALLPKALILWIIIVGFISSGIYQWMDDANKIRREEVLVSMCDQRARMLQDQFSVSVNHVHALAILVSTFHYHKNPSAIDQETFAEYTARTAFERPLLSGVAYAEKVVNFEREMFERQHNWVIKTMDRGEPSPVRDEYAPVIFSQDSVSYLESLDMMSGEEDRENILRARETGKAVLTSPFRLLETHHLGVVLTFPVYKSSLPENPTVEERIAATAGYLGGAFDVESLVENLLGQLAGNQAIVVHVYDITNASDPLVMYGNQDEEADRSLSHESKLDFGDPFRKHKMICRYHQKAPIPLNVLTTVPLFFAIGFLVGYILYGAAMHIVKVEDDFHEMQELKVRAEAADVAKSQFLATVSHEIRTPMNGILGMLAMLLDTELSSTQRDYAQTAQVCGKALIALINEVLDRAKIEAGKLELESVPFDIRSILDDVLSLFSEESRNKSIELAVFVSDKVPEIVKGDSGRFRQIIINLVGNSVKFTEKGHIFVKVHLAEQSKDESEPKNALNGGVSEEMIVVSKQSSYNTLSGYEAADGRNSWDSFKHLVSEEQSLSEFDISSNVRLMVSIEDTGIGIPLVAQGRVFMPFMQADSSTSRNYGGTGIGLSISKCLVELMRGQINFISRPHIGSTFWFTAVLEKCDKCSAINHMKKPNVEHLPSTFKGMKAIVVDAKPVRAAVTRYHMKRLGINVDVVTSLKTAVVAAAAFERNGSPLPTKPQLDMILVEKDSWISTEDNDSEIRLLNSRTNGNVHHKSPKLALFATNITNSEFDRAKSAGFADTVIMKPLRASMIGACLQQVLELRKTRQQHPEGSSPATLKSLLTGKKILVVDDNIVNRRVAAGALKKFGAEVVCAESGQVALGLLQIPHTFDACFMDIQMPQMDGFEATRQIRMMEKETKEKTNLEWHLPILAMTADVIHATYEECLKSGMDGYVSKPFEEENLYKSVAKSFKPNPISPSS

[4] = molecular target: T3, CRE1/AHK4 (ARABIDOPSIS HISTIDINE KINASE 4); assay: radioligand ([[…]-3H]tZ, […]) in competitive binding assay with E. coli cells
AHK3 [5] = molecular target: T2, AHK3; assay: as above

Row | Ki (AHK3 [2]) [µM] | Ki [3] [µM] | SMILES | in vitro enzymatic reaction with AtCKX2 (kcat, Vmax/Km) [1] | radioligand ([2-3H]tZ, 3 nM) in competitive binding assay with E. coli cells [4] | radioligand ([2-3H]tZ, 3 nM) in competitive binding assay with E. coli cells (AHK3 [5])
1 | ~37 | ~1.4 | CC(C)=CCNc1ncnc2c1ncn2CCNc1ccc([N+](=O)[O-])c2nonc12 [iP-NBD] | AtCKX2 converted iP-NBD to the product with approx. six times lower turnover rate kcat compared to the parental iP |  | 
2 |  |  | C/C(=C\CNc1ncnc2[nH]cnc12)CO [tZ] |  | iP-NBD competes for receptor binding with radiolabelled natural cytokinins iP and tZ | iP-NBD competes for receptor binding with radiolabelled natural cytokinins iP and tZ
